Experiments:
IRAK1 = biological target: T1, IRAK1 (Homo sapiens, UniProt P51617); assay: IRAK1 enzymatic assay (ADP-Glo luminescence); format: biochemical; details: purified human recombinant His-TEV-IRAK1 (194-712)
T1 construct: His-TEV-IRAK1 (194-712); His (N); TEV cleavage site (N)
How it was run: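 Recombinant human His-TEV-IRAK1 (194-712), 0.3 μg/ml, preincubated 15 min at RT with compounds (10 μM to 0.5 nM) in 50 mM Hepes pH 7.0, 10 mM MgCl2, 2 mM DTT, 0.1% BSA. ATP-started reaction run 2 hours at RT; ADP formed from ATP hydrolysis/autophosphorylation read by ADP-Glo luminescence.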

IRAK4 = biological target: T2, IRAK4 (Homo sapiens, UniProt Q9NWZ3); assay: IRAK4 enzymatic assay (ADP-Glo luminescence); format: biochemical; details: purified human recombinant His-TEV-IRAK4 (1-460), ATP 2 μM
T2 construct: His-TEV-IRAK4 (1-460); His (N); TEV cleavage site (N)
T2 sequence (Q9NWZ3 1-460): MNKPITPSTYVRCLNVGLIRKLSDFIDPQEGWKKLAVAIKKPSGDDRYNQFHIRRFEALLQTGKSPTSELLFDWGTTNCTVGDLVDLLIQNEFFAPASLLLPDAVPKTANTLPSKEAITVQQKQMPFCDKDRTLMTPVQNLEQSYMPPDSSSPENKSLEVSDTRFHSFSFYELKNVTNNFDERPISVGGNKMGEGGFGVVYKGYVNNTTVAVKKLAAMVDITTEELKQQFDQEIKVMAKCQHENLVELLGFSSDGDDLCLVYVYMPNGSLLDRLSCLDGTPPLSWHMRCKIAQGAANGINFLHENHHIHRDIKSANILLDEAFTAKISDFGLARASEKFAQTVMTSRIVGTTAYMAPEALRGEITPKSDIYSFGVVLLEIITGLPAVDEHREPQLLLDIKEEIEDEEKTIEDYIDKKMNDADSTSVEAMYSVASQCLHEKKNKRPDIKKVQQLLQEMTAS
How it was run: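 Recombinant His-TEV-IRAK4 (1-460) at 0.3 μg/ml preincubated 15 min at RT with compounds (10 μM to 0.5 nM) in Hepes pH 7.0 buffer with MgCl2/MnCl2. Reaction started with 2 μM ATP and 300 nM STK1-biotin peptide, run 2 h at RT. ADP formed read by ADP-Glo luminescence.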

T1 sequence (P51617 194-712): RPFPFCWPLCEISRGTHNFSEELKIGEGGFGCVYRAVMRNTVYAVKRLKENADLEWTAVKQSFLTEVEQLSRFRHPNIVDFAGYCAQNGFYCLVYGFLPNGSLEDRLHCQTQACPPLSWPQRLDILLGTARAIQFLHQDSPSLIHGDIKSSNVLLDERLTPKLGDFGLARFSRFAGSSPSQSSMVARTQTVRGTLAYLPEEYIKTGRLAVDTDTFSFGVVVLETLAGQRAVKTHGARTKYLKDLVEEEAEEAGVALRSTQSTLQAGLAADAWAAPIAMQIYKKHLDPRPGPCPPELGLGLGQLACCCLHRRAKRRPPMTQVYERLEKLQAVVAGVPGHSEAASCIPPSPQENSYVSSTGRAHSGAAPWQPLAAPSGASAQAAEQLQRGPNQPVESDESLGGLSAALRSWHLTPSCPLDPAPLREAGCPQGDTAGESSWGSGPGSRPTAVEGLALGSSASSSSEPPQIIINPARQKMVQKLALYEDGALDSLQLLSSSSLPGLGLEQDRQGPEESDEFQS

| Compound | IC50 (IRAK1) [nM] | IC50 (IRAK4) [nM] |
| --- | --- | --- |
| CN1CCCN(c2ccc3c(c2)[nH]/c(=N\C(=O)c2cccc(C(F)(F)F)c2)n3CCCO)C1=O [Example 224, (E)-N-(1-(3-hydroxypropyl)-5-(3-methyl-2-oxotetrahydropyrimidin-1(2H)-yl)-1H-benzo[d]imidazol-2(3H)-ylidene)-3-(trifluoromethyl)benzamide] | 100 to 1000 | ≤ 100 |
| CN1CCCN(c2ccc3c(c2)[nH]/c(=N\C(=O)c2cccc(C(F)F)c2)n3CCCO)C1=O [Example 225, (E)-N-(1-(3-hydroxypropyl)-5-(3-methyl-2-oxotetrahydropyrimidin-1(2H)-yl)-1H-benzo[d]imidazol-2(3H)-ylidene)-3-(difluoromethyl)benzamide] | 100 to 1000 | ≤ 100 |
| CC(F)(CO)Cn1/c(=N/C(=O)c2cccc(C(F)(F)F)c2)[nH]c2cc(N3CCCOC3=O)ccc21 (stereo not drawn) [Example 226, (E)-N-(1-(2-fluoro-3-hydroxy-2-methylpropyl)-5-(2-oxo-1,3-oxazinan-3-yl)-1H-benzo[d]imidazol-2(3H)-ylidene)-3-(trifluoromethyl)benzamide] | ≤ 100 | ≤ 100 |
| O=C(/N=c1\[nH]c2cc(N3CCCOC3=O)ccc2n1CC1(F)COC1)c1cccc(C(F)F)c1 [Example 227, (E)-3-(difluoromethyl)-N-(1-((3-fluorooxetan-3-yl)methyl)-5-(2-oxo-1,3-oxazinan-3-yl)-1H-benzo[d]imidazol-2(3H)-ylidene)benzamide] | 100 to 1000 | ≤ 100 |
| O=C(/N=c1\[nH]c2cc(N3CCCOC3=O)ccc2n1CC1(F)CCOCC1)c1cccc(C(F)F)c1 [Example 228, (E)-3-(difluoromethyl)-N-(1-((4-fluorotetrahydro-2H-pyran-4-yl)methyl)-5-(2-oxo-1,3-oxazinan-3-yl)-1H-benzo[d]imidazol-2(3H)-ylidene)benzamide] | 100 to 1000 | ≤ 100 |
| O=C(/N=c1\[nH]c2cc(N3CCCOC3=O)ccc2n1CC1(F)CCOCC1)c1cccc(C(F)(F)F)c1 [Example 229, (E)-N-(1-((4-fluorotetrahydro-2H-pyran-4-yl)methyl)-5-(2-oxo-1,3-oxazinan-3-yl)-1H-benzo[d]imidazol-2(3H)-ylidene)-3-(trifluoromethyl)benzamide] | 100 to 1000 | ≤ 100 |
| N#Cc1cccc(C(=O)/N=c2\[nH]c3cc(N4CCCOC4=O)ccc3n2CC2(F)CCOCC2)c1 [Example 230, (E)-3-cyano-N-(1-((4-fluorotetrahydro-2H-pyran-4-yl)methyl)-5-(2-oxo-1,3-oxazinan-3-yl)-1H-benzo[d]imidazol-2(3H)-ylidene)benzamide] | 100 to 1000 | ≤ 100 |
| CC(=O)c1cccc(C(=O)/N=c2\[nH]c3cc(N4CCOCC4=O)ccc3n2CCCO)c1 [Example 231, (E)-3-acetyl-N-(1-(3-hydroxypropyl)-5-(3-oxomorpholino)-1H-benzo[d]imidazol-2(3H)-ylidene)benzamide] | 100 to 1000 | ≤ 100 |
| O=C(/N=c1\[nH]c2cc(N3CCOCC3=O)ccc2n1CCCO)c1ccc2scnc2c1 [Example 232, (E)-N-(1-(3-hydroxypropyl)-5-(3-oxomorpholino)-1H-benzo[d]imidazol-2(3H)-ylidene)benzo[d]thiazole-5-carboxamide] | > 1000 | ≤ 100 |
